From a melting point compilation (Tetko et al.; mined from patent text by program, amines drawn as free bases though some values may be those of a salt)

In the case of `O=C(O)[C@H](Cc1ccccc1)C[C@@H](Cc1ccccc1)C(=O)O`, the melting point is reported as 150 to 152 °C.
In the case of `O=C1NC(=O)C(Cc2cc(Cl)ccc2[N+](=O)[O-])N1` (stereo not drawn), the melting point is reported as 184 to 186 °C.
With `CN(O)C(=O)C(C)(C)Cc1ccc2c(c1)C(=O)c1ccccc1CO2` the melting point was 192 to 194 °C.
Compound `COC(C)(CCCCCC(C)(C)O)c1cccc(C=Cc2cc(O)cc(O)c2)c1` (stereo not drawn) has a melting point of 65 to 75 °C.
Compound `CC(=O)C1=C(O)C(=C(C)Nc2cccc(NS(C)(=O)=O)c2)C(=O)OC1=O` has a melting point of 196 °C.
`COC1=C(c2ccccc2CSc2nc3ccccc3s2)C(=O)OC1` gave a melting point of 81 to 82 °C.
Compound `O=C(Nc1cccc(Br)c1)NC1N=C(c2ccccc2F)c2ccccc2N(CC(=O)N2CC3CCC(CC3)C2)C1=O` (racemic) has a melting point of 173 to 186 °C.
With `O=C(Nc1ccc(-n2nc(C(F)(F)F)cc2Br)cc1)c1cccc(F)c1F` the melting point was 109 to 112 °C.
`O=S1(=O)N=C(NC2CCCCC2)Nc2cc(Cl)sc21` showed a melting point of 282 to 284 °C.
`Cc1cc2c(s1)SCCNC2=O` showed a melting point of 155 to 156 °C.
With `CCCCCCNc1nc(N)ccc1[N+](=O)[O-]` the melting point was 69 to 73 °C.
`CN1CCN(c2ccccc2C=CC(=O)Nc2ccc(C(F)(F)F)cc2)CC1` showed a melting point of 207 to 209 °C.
`CCN(CC)CCCNC(=O)C(C)n1cc(-c2ccccc2)c(-c2ccccc2)n1` (stereo not drawn) gave a melting point of 87 to 89 °C.
`COCC1=C(C(=O)NCCCN2CCC(c3ccc(F)cc3)CC2)C(c2ccc(F)c(F)c2)NC(=O)N1` (single isomer, unassigned; (-)) showed a melting point of 149 to 150 °C.
`COc1cc(Nc2c(C#N)cnc3cc(C#CCN4CCN(C)CC4)sc23)cc(OC)c1OC` showed a melting point of 180 to 182 °C.
With `CC(C)(C)OC(=O)NCCCCO/N=C(\C(=O)O)c1csc(NC(c2ccccc2)(c2ccccc2)c2ccccc2)n1` the melting point was 120 to 124 °C.
For `N#Cc1ccc(-c2ccc(SC3SCC(O)C(O)C3O)cc2)cc1` (stereo not drawn), the melting point was 168 °C.
In the case of `COc1ccc2c(c1CNC(=O)OCC1c3ccccc3-c3ccccc31)Oc1c(ccc(OC)c1CC(=O)O)C2(C)C`, the melting point is reported as 134 to 136 °C.
With `CCCn1c2cc(OCc3ccccc3)ccc2c2ccnc(C)c21` the melting point was 113 °C.
In the case of `CC(C)Cc1nn(C)c(=O)c2cc(C(O)c3cccc4ccccc34)sc12` (stereo not drawn), the melting point is reported as 165 to 167 °C.
Work on `COC(=O)c1ccc2[nH]cc(C(=O)c3ccccc3)c2c1` yielded a melting point of 271 to 273 °C.
Work on `O=C(NCC1CCCCCC1)c1cc(-c2cccnc2C(=O)O)ccc1Cl` yielded a melting point of 166 to 168 °C.
For `NC(=O)N(O)CC=Cc1ccc(-c2ccccc2)o1`, the melting point was 157 to 158 °C.
`CC(=O)c1ccc(C2CCN(C(C)=O)CC2)c(N)c1` showed a melting point of 220 to 222 °C.
Work on `Cc1nccn1-c1nc(-c2ccc(Cl)cc2)c(CCCCOS(C)(=O)=O)o1` yielded a melting point of 100 to 101 °C.
For `CC1(C)C(=O)NC(=O)c2cc(NC(N)=O)ccc21`, the melting point was 260 to 264 °C.
For `COCCOCc1c(CN(C)CC(O)c2ncccn2)sc2c(=O)c(C(=O)NCc3ccc(Cl)cc3)cn(C)c12` (stereo not drawn), the melting point was 146 to 148 °C.
`CCCCCCOC1CCC(=O)N1` (stereo not drawn) showed a melting point of 35 to 37 °C.
`CNC(=O)n1sc(-c2ccccc2)nc1=O` showed a melting point of 210 °C.
Work on `COCc1cccc(CCC(O)c2ccccc2)c1NC(=O)CC1c2ccccc2Oc2ccccc21` (stereo not drawn) yielded a melting point of 144 to 146 °C.
`CCCCOCCOc1ccc(-c2ccc3c(c2)C=C(C(=O)O)CCN3c2ccccc2)cc1` gave a melting point of 129 to 131 °C.
With `COC(=O)C1Cc2c(C)ccc(C)c2N1` (stereo not drawn) the melting point was 80 °C.
Work on `COc1ccc(-c2nc(CNC(=O)OCc3ccccc3)sc2-c2cccnc2)cc1` yielded a melting point of 93 to 94 °C.
Work on `CCCN(C(C)C)[C@H]1COc2cccc(C(N)=O)c2C1` yielded a melting point of 121 to 122 °C.
With `Cc1ccc(NC(=O)N(C)C)cc1` the melting point was 154 to 157 °C.
In the case of `BrCc1ccccc1-c1cc(-c2ccccc2)on1`, the melting point is reported as 68 to 72 °C.
Work on `CCCc1c(OCCCOc2ccc(C(=O)CCC(=O)O)cc2C)ccc(C(C)=O)c1O` yielded a melting point of 179 to 180 °C.
In the case of `O=C(Nc1ccc(Cc2nnn[nH]2)cc1)C(F)(F)C(F)(F)F`, the melting point is reported as 183 to 185 °C.
Work on `Cc1cn(-c2cc(C(=O)O)cc(C(F)(F)F)c2)cn1` yielded a melting point of over 300 °C.
Work on `CO[C@H]1O[C@@H](C)[C@@H]2[C@H](/C=C/[C@H]3CCC[C@H](C)N3C(=O)OC(C)(C)C)[C@H]3CCCC[C@@H]3C[C@H]12` yielded a melting point of 90.5 to 92.5 °C.
For `O=C(CCC1c2ccccc2-c2ccccc21)N[C@@H](Cc1ccccc1)C(=O)O`, the melting point was 194 to 195 °C.
Work on `Clc1cc(Cl)nc(-c2ccc(Sc3ccccc3)cc2)n1` yielded a melting point of 94 to 97 °C.
`CC(C)OC(=O)c1cc(-n2c(N)c(C#N)cnc2=O)c(F)cc1Cl` gave a melting point of 212 to 213 °C.
`Cc1cccc(C(=O)Nc2c[nH]nc2C(=O)NCCO)n1` showed a melting point of 252 to 253 °C.
For `Clc1cccc(-c2nnnn2-c2cccnc2)c1Cl`, the melting point was 124 to 126 °C.
Work on `CC(=O)Nc1c(C(=O)c2cccc(Br)c2)[nH]c2cc(Cl)ccc12` yielded a melting point of 183 to 184 °C.
`CCCCCCCCCCCCCCCC(=O)NCCCN1CCCCC1C` (stereo not drawn) showed a melting point of 48 to 50 °C.
Work on `CCOC(=O)c1cn(C2CC2)c2c(CO)c(N3CCN(C)CC3)c(F)cc2c1=O` yielded a melting point of 216 to 218 °C.
Compound `Cc1c(-c2ccccc2)oc2c(CO)cccc2c1=O` has a melting point of 145 to 147 °C.
Compound `CC(C)=NNc1cc2c(nn1)CCN(C(=O)C1CCC1)C2` has a melting point of 175 to 178 °C.
`C=CCSc1cn(C)cc(-c2ccccc2)c1=O` gave a melting point of 136 to 138 °C.
`O=COCC#Cc1cc(F)c2ncc(C(=O)NCc3ccc(Cl)cc3)c(O)c2c1` showed a melting point of 231 to 233 °C.
Compound `CC(C)(C)OC(=O)NC1CCCCCC=CC2CC2(C(=O)NS(=O)(=O)C2CC2)NC(=O)C2CC(OC(=O)c3ccc4c(c3)OCCO4)CN2C1=O` (stereo not drawn) has a melting point of 199 to 201 °C.
In the case of `Clc1cccc2c(CN3CCN(c4ccc5c(c4)OCO5)CC3)n[nH]c12`, the melting point is reported as 173 to 174 °C.
Work on `COC1=C(C)C(=O)C2=C(C1=O)C(COC(N)=O)C1(OC)C3NC3CN21` (stereo not drawn) yielded a melting point of 161 °C.
Work on `CC(C#N)(NC(=O)c1c(Cl)cccc1Cl)c1ncc(C(F)(F)F)cc1Cl` (stereo not drawn) yielded a melting point of 166 to 167 °C.
In the case of `CCn1c(=O)n(CCCCC(C)=O)c(=O)c2c1ncn2Cc1ccccc1`, the melting point is reported as 123 to 125 °C.
`N#Cc1c(N2CCN(C(=O)c3ccco3)CC2)c2cc(F)cnc2n(CC(=O)c2ccccc2)c1=O` gave a melting point of 293 °C.
`N#CCc1ccc(OCCc2coc(-c3ccccc3)n2)cc1` showed a melting point of 81 to 83 °C.
With `NC(=O)c1c(Br)cc(Br)c(CCC(=O)O)c1Br` the melting point was 197 °C.
With `CCc1nc2c(NC(=O)C(C)C)nc3ccccc3c2n1CCCCNS(C)(=O)=O` the melting point was 122 to 124 °C.
`COc1cc2c(cc1[N+](=O)[O-])[nH]c(=O)c(=O)n2C` gave a melting point of 343 °C.
With `CCS(=O)(=O)c1ccc(C(=O)O)c(Cl)c1O` the melting point was 188 to 192 °C.
`Cc1ncc(NC(=O)OCc2ccccc2)c(=O)n1CC(=O)NC(Cc1ccccc1)C(=O)C(F)(F)F` (stereo not drawn) showed a melting point of 115 to 118 °C.
With `CCOC(=O)c1ccc(-c2ccc(OCCCNC3CC3)c(-c3ccc4c(c3)C(C)(C)CCC4(C)C)c2)cc1` the melting point was 141 °C.
For `COCc1cc2c(C(=O)Nc3ccnn3C)ccc(OC)c2o1`, the melting point was 148 to 150 °C.
With `COc1cccc2c(CCCNC3COc4c(F)ccc(C(N)=O)c4C3)coc12` (stereo not drawn) the melting point was 163 to 166 °C.
For `C=Cc1cc(CNC(=O)C#Cc2ccc(C(C)(C)C)cc2)cc(F)c1NS(C)(=O)=O`, the melting point was 155 to 157 °C.
For `CCOC(=O)c1cc(C=O)ccc1O`, the melting point was 67 to 69 °C.
With `O=C(NN1CC=CCC1)Oc1ccccc1` the melting point was 124 to 126 °C.
For `CCC1(COc2ccc(C=CC(=O)O)cc2)COC1`, the melting point was 128 °C.
In the case of `CCCCCCCCCC(=O)Nc1cc(NC(=O)CCCCCCCCC)cc(N(CC(=O)OCc2ccccc2)CC(=O)OCc2ccccc2)c1`, the melting point is reported as 127 to 129 °C.
`Cc1nc(N2CCN(CC3CCC3)C2=O)sc1C(=O)NCc1cccnc1` showed a melting point of 136 to 137 °C.
`Nc1nc(N)c([N+](=O)[O-])c(OCc2ccccc2)n1` showed a melting point of 194 to 195 °C.
For `CCCOc1ccc(C)c2c(=O)c(-c3ccc(OC)cc3)c[nH]c12`, the melting point was 192 to 193 °C.
Compound `Cc1sc(CCc2ccc(/C=C/CO)cc2)nc1-c1ccccc1` has a melting point of 93 to 94 °C.
For `Cc1ccc(-c2coc(C=CC(=O)NC3CCC(CN(C)C4CCOCC4)CC3)c2)cc1` (stereo not drawn), the melting point was 165 to 167 °C.
`CCOC(=O)c1cn2c3c(cc(C)cc3c1=O)OCC2C` (stereo not drawn) showed a melting point of 195 to 197 °C.
In the case of `Cn1c(COc2ccc(CC3SC(=O)N(C(c4ccccc4)(c4ccccc4)c4ccccc4)C3=O)cc2)nc2cc(Br)cnc21` (stereo not drawn), the melting point is reported as 97 to 100 °C.
`CC(C)(C)c1cc(CCc2ccccc2NC(=O)NC2CCN(Cc3ccc(Cl)cc3)CC2)cc(C(C)(C)C)c1O` gave a melting point of 184 to 185 °C.
In the case of `O=S(=O)(c1ccc2ccccc2c1)n1ccc2ccccc21`, the melting point is reported as 103 to 105 °C.
With `CCOC(=O)C(=CNc1ccc([N+](=O)[O-])cc1O)C(=O)c1cc(F)c(F)c(F)c1F` the melting point was 225 °C.
Work on `O=C(O)c1[nH]cc(OCc2ccccc2)c(=O)c1Br` yielded a melting point of 120 °C.
With `CC(C)(CO)C1CCN(CC#Cc2cc(C(F)(F)F)cc(C(F)(F)F)c2)CC1` the melting point was 85 to 87 °C.
`CC(=O)c1ccc2c(c1)Cc1cccnc1O2` gave a melting point of 142 to 144 °C.
`NC(=O)Nc1ccc(N2CCN(c3ccncc3)CC2)cc1` gave a melting point of over 250 °C.
`CC1(C)C(=O)N(c2ccc(C#N)c(C(F)(F)F)c2)C(=O)N1CCF` showed a melting point of 10 °C.
`COC(=O)CCc1cc2cc(Cl)ccc2n1S(=O)(=O)c1ccc2ncsc2c1` gave a melting point of 134 to 138 °C.
In the case of `NC(=O)c1ccc(CCn2ccn(C3CCc4ccccc4C3)c2=S)cc1` (stereo not drawn), the melting point is reported as 158 to 160 °C.
Compound `CCCN(C)S(=O)(=O)c1cc(-n2c(=O)cc(C(F)(F)F)n(C)c2=O)ccc1Cl` has a melting point of 144 to 145 °C.
`COc1ccc(C2=NN(C3CCN(S(=O)(=O)N(C)C)CC3)C(=O)C(C)(C)C2)cc1OC` gave a melting point of 172 to 174 °C.
For `O=C1c2ccccc2COc2ccc(CC=NO)cc21`, the melting point was 132 to 134 °C.
`Cc1cccc(C)c1NC(=O)c1ccc(C(N)=O)cc1` gave a melting point of 246 to 248 °C.
For `CN(C)c1ccc(-c2nc(C#N)c(C#N)nc2C#N)cc1`, the melting point was 198 to 200 °C.
For `CC(=O)SC[C@H]1CCCCCC[C@H](C(=O)O)NC1=O` (relative stereo), the melting point was 144 to 145 °C.
`CCN(CC)S(=O)(=O)c1cc(Br)c(N)c(Br)c1` gave a melting point of 186 to 187 °C.
Work on `O=C(Cc1ccnc(Br)c1)c1ccccn1` yielded a melting point of 111 °C.
`NS(=O)(=O)c1cnc(S(=O)(=O)c2ccccc2)s1` gave a melting point of 119 to 120 °C.
